Experiment [1] has as its system P. falciparum 3D7 (CQ-susceptible) asexual blood stages. Set-up: method as in PMID 29465117. To be noted: in vitro antiplasmodial activity; read-out: P. falciparum 3D7 (Cell Based Activity), IC50; cited from earlier work.
In experiment [2] the target is T1, S. mansoni thioredoxin-glutathione reductase (SmTGR) (Schistosoma mansoni, UniProt Q962Y6).
T1 construct: made in house
T1 sequence (Q962Y6 1-598): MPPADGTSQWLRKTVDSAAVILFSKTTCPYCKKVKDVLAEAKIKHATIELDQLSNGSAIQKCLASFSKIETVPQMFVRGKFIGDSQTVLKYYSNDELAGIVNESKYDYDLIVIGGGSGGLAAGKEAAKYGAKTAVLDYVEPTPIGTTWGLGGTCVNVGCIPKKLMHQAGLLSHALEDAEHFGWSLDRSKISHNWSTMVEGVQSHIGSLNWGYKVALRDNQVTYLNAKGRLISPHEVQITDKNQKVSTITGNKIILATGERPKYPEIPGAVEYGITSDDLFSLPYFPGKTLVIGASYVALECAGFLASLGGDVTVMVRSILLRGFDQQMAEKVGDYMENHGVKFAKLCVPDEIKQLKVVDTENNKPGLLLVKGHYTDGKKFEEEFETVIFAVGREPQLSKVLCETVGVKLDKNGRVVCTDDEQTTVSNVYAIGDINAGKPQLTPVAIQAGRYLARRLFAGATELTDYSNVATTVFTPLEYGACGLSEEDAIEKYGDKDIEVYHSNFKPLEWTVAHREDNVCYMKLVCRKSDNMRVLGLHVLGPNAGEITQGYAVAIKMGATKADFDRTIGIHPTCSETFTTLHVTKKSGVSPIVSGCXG
The experiment can be described thus: Inhibition of enzymatic activity of recombinant S. mansoni thioredoxin glutathione reductase. In kind it is biochemical. To be noted: 15 min preincubation, mean of one experiment, read-out: IC50 for TrxRs, S. mansoni (Sec). Here is the method: (§1) The codon-optimized sequence for PfTrxR [27, 28] was synthesized and subcloned into pET-15b (Genscript) and expressed and purified as for human glutathione reductase (hGR). Recombinant Schistosoma mansoni (S. mansoni) thioredoxin glutathione reductase (SmTGR), human TrxR (hTrxR), and hGR proteins were expressed and purified as described. TrxR and TGR enzyme inhibition assays were performed in triplicate at 25 °C in 0.1 M potassium phosphate (pH 7.4), 10 mM EDTA, 100 µM NADPH and 0.01% Tween-20. SmTGR (4 nM), hTrxR (4 nM), and PfTrxR (50 nM) were preincubated with the compounds for 15 min. The reaction was started with addition of an equal volume of 5,5′-dithiobis(2-nitrobenzoic acid) (6 mM) and NADPH (100 µM). The increase in A412 during the first 3 min was recorded. […]. The reactions were performed in triplicate. The IC50s were calculated in Prism version 5.01.

In experiment [3] the target is T2, human glutathione reductase (hGR) (Homo sapiens, UniProt P00390).
T2 construct: made in house
T2 sequence (P00390 44-522): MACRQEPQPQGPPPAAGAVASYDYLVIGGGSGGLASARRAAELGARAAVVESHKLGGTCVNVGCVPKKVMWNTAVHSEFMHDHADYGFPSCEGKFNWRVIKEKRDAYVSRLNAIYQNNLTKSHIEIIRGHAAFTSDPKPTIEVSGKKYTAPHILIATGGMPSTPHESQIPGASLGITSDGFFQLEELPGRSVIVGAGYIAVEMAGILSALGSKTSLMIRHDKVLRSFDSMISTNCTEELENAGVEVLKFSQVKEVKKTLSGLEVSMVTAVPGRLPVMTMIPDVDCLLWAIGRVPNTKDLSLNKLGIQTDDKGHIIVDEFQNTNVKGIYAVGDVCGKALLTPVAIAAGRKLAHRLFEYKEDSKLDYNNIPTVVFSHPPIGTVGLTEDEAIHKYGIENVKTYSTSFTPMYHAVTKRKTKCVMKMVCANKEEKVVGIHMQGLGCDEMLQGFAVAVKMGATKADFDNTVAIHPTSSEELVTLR
The experiment can be described thus: Inhibition of enzymatic activity of recombinant human glutathione reductase. Type of experiment: biochemical. To be noted: recombinant enzyme, 15 min preincubation; mean of one experiment; read-out: IC50, Human GR. As to the method: as §1

Experiment [4] deals with T3, human TrxR (hTrxR) (Homo sapiens, UniProt Q16881).
T3 construct: made in house
T3 sequence (Q16881 151-649 limits assumed): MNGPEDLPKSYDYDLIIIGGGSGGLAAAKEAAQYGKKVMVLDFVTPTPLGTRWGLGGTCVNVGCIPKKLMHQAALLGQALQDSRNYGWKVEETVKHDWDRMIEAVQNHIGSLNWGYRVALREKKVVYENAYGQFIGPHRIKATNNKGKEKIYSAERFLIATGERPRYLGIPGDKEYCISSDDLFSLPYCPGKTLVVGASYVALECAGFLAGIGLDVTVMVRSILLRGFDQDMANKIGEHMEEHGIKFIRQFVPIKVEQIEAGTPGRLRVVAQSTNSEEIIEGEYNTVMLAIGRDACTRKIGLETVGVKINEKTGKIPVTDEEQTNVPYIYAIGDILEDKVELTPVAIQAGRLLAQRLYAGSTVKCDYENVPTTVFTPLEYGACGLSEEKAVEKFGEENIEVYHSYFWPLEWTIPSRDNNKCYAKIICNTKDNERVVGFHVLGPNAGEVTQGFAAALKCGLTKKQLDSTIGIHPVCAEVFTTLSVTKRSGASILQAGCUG
The experiment can be described thus: Inhibition of enzymatic activity of recombinant human TrxR. In kind it is biochemical. To be noted: recombinant enzyme, 15 min preincubation; mean of one experiment; read-out: IC50 for TrxRs, Human (Sec). As to the method:
as §1

For experiment [5], the target named is T4, PfTrxR (Plasmodium falciparum, UniProt Q25861).
T4 construct: made in house
T4 sequence (Q25861 1-541): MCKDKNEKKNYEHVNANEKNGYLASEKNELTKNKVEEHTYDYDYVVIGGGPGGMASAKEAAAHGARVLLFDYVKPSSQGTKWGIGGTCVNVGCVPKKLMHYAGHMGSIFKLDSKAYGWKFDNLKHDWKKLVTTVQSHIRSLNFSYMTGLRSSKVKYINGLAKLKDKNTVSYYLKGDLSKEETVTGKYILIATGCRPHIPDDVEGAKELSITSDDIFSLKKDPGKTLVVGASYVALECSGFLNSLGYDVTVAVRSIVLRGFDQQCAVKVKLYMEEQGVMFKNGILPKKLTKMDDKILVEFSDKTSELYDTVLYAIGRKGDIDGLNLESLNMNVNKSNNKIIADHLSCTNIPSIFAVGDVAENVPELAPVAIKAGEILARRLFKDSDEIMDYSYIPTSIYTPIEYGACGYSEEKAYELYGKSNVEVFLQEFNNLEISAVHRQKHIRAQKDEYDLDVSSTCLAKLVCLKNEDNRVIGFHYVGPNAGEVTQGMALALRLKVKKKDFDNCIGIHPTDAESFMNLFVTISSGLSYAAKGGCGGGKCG
Briefly: Inhibition of enzymatic activity of recombinant P. falciparum TrxR. Type of experiment: biochemical. Conditions: recombinant enzyme, 15 min preincubation; mean of one experiment; read-out: IC50 for TrxRs, P. falciparum (Cys). Here is the method:
as §1

What is called IC50 is the concentration needed to halve the response being measured. Consider `CC(=O)OC[C@H]1O[C@@H]([S-])[C@H](OC(C)=O)[C@@H](OC(C)=O)[C@@H]1OC(C)=O.CCP(CC)CC.[Au+]` [Auranofin, auranofin], for which the IC50 is 60 nM in experiment [1]; 7 nM in experiment [2]; 40000 nM in experiment [3]; 20 nM in experiment [4]; 62 nM in experiment [5].

The values above are taken from publication PMC9229949 (Pharmaceutics, 2022).
